Experimental findings from US12466827B2, “1,3,4-oxadiazole derivative compounds as histone deacetylase 6 inhibitor, and the pharmaceutical composition comprising the same” (CHONG KUN DANG PHARMACEUTICAL CORP., priority 2020, dated 2025) are described below.

One experiment has as its target T1, human recombinant HDAC1 (Homo sapiens, UniProt Q13547).
T1 construct: purchased Enzo Life Sciences, Inc. BML-SE456
In words: In vitro HDAC enzyme activity inhibition assay (HDAC1). The format is biochemical. The settings on record: Fluor de Lys-SIRT1 substrate 10 μM, 30° C., 60 minutes, fluorescence. The essentials:
(§1)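 Fluorimetric deacetylase kit: human recombinant HDAC1 or HDAC6 (0.3 μg) with 10 μM Fluor de Lys-SIRT1 substrate and 5-fold diluted compounds, 60 min at 30° C. Developer added for 30 min, fluorescence read at Ex 360/Em 460, IC50 calculated.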

The target of the next experiment is T2, human recombinant HDAC6 (Homo sapiens, UniProt Q9UBN7).
T2 construct: purchased Calbiochem Inc. 382180
T2 sequence (Q9UBN7 1-1215): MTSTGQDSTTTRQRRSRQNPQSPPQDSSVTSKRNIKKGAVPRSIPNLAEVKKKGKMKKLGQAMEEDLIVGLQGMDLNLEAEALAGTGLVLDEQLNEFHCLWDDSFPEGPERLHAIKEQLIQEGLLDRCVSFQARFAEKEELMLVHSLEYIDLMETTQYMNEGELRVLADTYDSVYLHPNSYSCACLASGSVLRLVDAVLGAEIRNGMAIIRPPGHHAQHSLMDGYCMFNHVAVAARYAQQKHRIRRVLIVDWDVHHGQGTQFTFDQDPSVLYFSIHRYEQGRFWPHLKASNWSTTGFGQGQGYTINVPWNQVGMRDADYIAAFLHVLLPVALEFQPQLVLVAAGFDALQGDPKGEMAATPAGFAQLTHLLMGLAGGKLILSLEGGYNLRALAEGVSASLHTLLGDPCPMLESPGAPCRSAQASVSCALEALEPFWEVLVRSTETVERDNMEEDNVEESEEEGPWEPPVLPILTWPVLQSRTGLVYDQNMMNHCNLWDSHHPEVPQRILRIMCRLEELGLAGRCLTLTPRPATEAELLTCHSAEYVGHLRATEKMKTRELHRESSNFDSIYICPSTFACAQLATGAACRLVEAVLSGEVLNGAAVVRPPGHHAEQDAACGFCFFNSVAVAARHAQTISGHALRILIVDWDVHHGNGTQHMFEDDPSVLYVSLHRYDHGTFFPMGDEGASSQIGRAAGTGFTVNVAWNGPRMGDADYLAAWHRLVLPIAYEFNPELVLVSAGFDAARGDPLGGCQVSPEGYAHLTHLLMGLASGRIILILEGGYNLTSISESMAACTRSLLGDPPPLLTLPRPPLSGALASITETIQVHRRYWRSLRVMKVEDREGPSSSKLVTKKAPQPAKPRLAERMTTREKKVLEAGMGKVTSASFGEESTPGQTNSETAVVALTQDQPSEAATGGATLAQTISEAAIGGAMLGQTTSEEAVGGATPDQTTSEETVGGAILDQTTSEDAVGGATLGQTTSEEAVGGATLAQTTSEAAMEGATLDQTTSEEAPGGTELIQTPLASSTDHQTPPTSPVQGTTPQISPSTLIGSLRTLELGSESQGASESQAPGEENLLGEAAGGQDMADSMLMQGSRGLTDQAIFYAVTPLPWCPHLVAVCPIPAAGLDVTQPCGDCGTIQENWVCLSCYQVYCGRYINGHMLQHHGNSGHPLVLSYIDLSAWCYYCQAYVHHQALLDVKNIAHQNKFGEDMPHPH
In words: In vitro HDAC enzyme activity inhibition assay (HDAC6). The settings on record: for HDAC6 selectivity (fold): HDAC6 over HDAC1; for IC50: same protocol as the HDAC1 test, human recombinant HDAC6 (Calbiochem). Format: biochemical. The procedure, abridged: as §1

T1 sequence (Q13547 whole entry): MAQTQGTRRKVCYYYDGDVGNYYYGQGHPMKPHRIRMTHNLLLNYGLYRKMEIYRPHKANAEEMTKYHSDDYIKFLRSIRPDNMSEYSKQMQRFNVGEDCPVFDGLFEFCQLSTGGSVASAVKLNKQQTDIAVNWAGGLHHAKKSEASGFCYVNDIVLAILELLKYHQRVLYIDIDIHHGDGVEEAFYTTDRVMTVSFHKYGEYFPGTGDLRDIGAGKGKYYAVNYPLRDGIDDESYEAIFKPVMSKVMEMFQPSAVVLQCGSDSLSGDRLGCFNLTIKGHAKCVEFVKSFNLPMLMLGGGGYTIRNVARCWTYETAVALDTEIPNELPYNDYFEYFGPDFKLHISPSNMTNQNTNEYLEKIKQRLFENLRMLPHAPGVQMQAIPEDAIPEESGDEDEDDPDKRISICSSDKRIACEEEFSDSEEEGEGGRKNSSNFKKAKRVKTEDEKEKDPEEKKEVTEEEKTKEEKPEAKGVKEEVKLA

The term IC50 denotes the point on the concentration scale where inhibition reaches its midpoint. `O=S(=O)(C1CCN(c2ccccn2)CC1)N(Cc1cn2ccc(-c3nnc(C(F)F)o3)cc2n1)c1cccc(F)c1` [Compound 4254, N-((7-(5-(difluoromethyl)-1,3,4-oxadiazol-2-yl)imidazo[1,2-a]pyridin-2-yl)methyl)-N-(3-fluorophenyl)-1-(pyridin-2-yl)piperidine-4-sulfonamide]: the 50% inhibitory concentration (IC50) at human recombinant HDAC1 is above 50 µM. Moreover, on human recombinant HDAC6, the “HDAC6 selectivity (fold)” value was determined as 430 fold and the half-inhibitory concentration (IC50) amounted to 0.116 µM.

For `CN1CCN(S(=O)(=O)N(Cc2cn3ccc(-c4nnc(C(F)F)o4)cc3n2)c2cccc(F)c2)CC1` [Compound 4297, N-((7-(5-(difluoromethyl)-1,3,4-oxadiazol-2-yl)imidazo[1,2-a]pyridin-2-yl)methyl)-N-(3-fluorophenyl)-4-methylpiperazine-1-sulfonamide], the half-maximal inhibitory concentration (IC50) on human recombinant HDAC1 is above 50 µM. In addition, on human recombinant HDAC6, the “HDAC6 selectivity (fold)” value is given as 561 fold and the IC50 turned out to be 0.0892 µM.

For the molecule `O=S(=O)(N1CCN(C2CCCCC2)CC1)N(Cc1cn2ccc(-c3nnc(C(F)F)o3)cc2n1)c1ccccc1` [Compound 4262, 4-cyclohexyl-N-((7-(5-(difluoromethyl)-1,3,4-oxadiazol-2-yl)imidazo[1,2-a]pyridin-2-yl)methyl)-N-phenylpiperazine-1-sulfonamide], the concentration for half-maximal inhibition (IC50) at human recombinant HDAC1 was above 50 µM. In addition, at human recombinant HDAC6, the “HDAC6 selectivity (fold)” value turned out to be 167 fold and the IC50 amounted to 0.299 µM.
